# Results reported in patent US6862890B2, “Process for production of nanoparticles and microparticles by spray freezing into liquid” (Board of Regents, University of Texas System, priority 2001, dated 2005).
# How the values were obtained:
# Assay type in all cases: physicochemical
# [1] = Dissolution of drug from powders in dissolution media (FeSSIF); conditions: 60 minutes
# From the text: This media is used to simulate gastrointestinal conditions. FeSSIF is the dissolution media that the powders produced in the following examples are dispersed into to quantitate the amount of drug dissolved as a function of time.
# [2] = BET specific surface area of powders
# [3] = Contact angle of powder compacts against purified water (wettability); conditions: compacts of powders
# From the text: The two solutions were mixed and allowed to equilibrate to generate a water-soluble inclusion complex between danazol and HPβCD. The solution was then processed by SFL and freeze-dried in a tray lyophilizer. The solution was atomized directly into liquid nitrogen through an insulated polyetheretherketone (PEEK) nozzle with a 63.5 μm orifice at 5000 psi constant pressure supplied by an ISCO syringe pump. The atomized frozen powder was then collected by sieve filtration and freeze-dried. […] Measurement of the contact angle of compacts of the various samples investigated allowed for the determination of the wettability of the powders. […] A lower contact angle coincided with enhanced wettability of the powder in aqueous dissolution media. […] The two solutions were mixed to form a one-phase cosolvent solution. The solution was then processed by SFL and freeze-dried and fluidized in an atmospheric freeze-drying (ATMFD) chamber. […] The atomized frozen powder was then collected by sieve filtration and freeze-dried using a cryogenic atmospheric (ATMFD) fluidized bed apparatus. […] The microparticles are porous and have a high surface area. […] Measurement of the contact angle of compacts of the various samples investigated allowed for the determination of the wettability of the powders. […] A lower contact angle coincided with a better wettability of the powder in aqueous dissolution media. […]
# [4] = Particle size of powders (time-of-flight, AERO-[…])
# Description: (§1) An aliquot of 0.1 g bovine insulin was dissolved in 20 ml HCl (pH=2), the solution was then titrated by 0.1 N NaOH to pH 7.4. The feed solution was then atomized using an ISCO pump by spray freezing into liquid nitrogen. The nozzle used was polyetheretherketone tubing with a diameter of 63.5 μm. The flow rate was 14 ml/min at 4000 psi. The frozen particles were collected and dried in a tray lyophilizer.
# The span index is used to described the polydispersity in a given particle size distribution and is defined as (D90-D10)/D50, where D10, D50, and D90 are the respective particle size at 10, 50, 90 percent cumulative percent undersize.
# [5] = Chemical stability of insulin: level of A-21 desamido insulin; conditions: stored at −4° C.
# Description: as §1, with “lyophilizer. The resulting particles were highly porous. […] The SFL process decreased the level of covalent insulin dimer (Table 2). The mean particle size diameter as determined by time-of-flight measurement was 5.06 microns. SEM photographs reveal that the particle is an aggregate composed of small domains of insulin.” for “lyophilizer.”
# (§2) The SFL insulin powder was prepared according to the procedure outlined in Example 1 with same formulation. The SFL insulin powder was stored at −4° C. The samples were taken out at 6, 12 and 24 weeks.
# [6] = Chemical stability of insulin: level of covalent insulin dimer; conditions: for percentage of covalent insulin dimer: stored at −4° C.
# Description: as §1, with “lyophilizer. The resulting particles were highly porous. […] The SFL process decreased the level of covalent insulin dimer (Table 2). The mean particle size diameter as determined by time-of-flight measurement was 5.06 microns. SEM photographs reveal that the particle is an aggregate composed of small domains of insulin.” for “lyophilizer.”
# as §2
compound,measurement,setting,value
C#C[C@]1(O)CC[C@H]2[C@@H]3CCC4=Cc5oncc5C[C@]4(C)[C@H]3CC[C@@]21C [Danazol],amount of danazol dissolved,[1],21%
same,BET surface area,[2],0.52 m^2/g
"C#C[C@]1(O)CC[C@H]2[C@@H]3CCC4=Cc5oncc5C[C@]4(C)[C@H]3CC[C@@]21C [SFL Danazol Alone, danazol]",Average Contact Angle ± S.D. against purified water,[3],64.3 ± 1.1 °
same,Average Contact Angle ± S.D. against purified water,[3]; listed as danazol alone,64.3 °
"NC(=O)N1c2ccccc2C=Cc2ccccc21 [CBZ, carbamazepine]",Span Index (D90-D10)/D50,[4],2.94
same,D10,"[4]; time-of-flight, 10 percent cumulative undersize",15.56 μm
same,D50,"[4]; time-of-flight, 50 percent cumulative undersize",39.70 μm
same,D90,"[4]; time-of-flight, 90 percent cumulative undersize",132.33 μm
bovine insulin [Bulk insulin],percentage of A-21 desamido,[5]; 12 weeks,2.61 percentage
same,percentage of A-21 desamido,[5]; 24 weeks,2.72 percentage
same,percentage of A-21 desamido,[5]; Initial,2.46 percentage
same,percentage of covalent insulin dimer,[6]; 12 weeks,1.18 percentage
same,percentage of covalent insulin dimer,[6]; 24 weeks,1.15 percentage
same,Covalent Insulin Dimer (percent),"[6]; Example 1, after SFL and lyophilization vs bulk",0.25%
same,percentage of covalent insulin dimer,[6]; Initial,0.5 percentage
same,Mean Particle Size,[4]; time-of-flight,14.24 μm
